Earlier results on 1 compound are cited in patent US20150342920A1, “DERMATOLOGICAL COMPOSITIONS COMPRISING AT LEAST ONE RETINOID COMPOUND, AN ANTI-IRRITANT COMPOUND AND BENZOYL PEROXIDE” (GALDERMA RESEARCH & DEVELOPMENT, priority 2007, published 2015).

In the case of `O=C(OOC(=O)c1ccccc1)c1ccccc1` [benzoyl peroxide], under “in solution, ethanol, propylene glycol and mixtures of PEG 400 and water, depends on type and concentration of solvent”, the “degradation of benzoyl peroxide in solution” value is reported as “degrades more or less rapidly”. Also, the “degradation of benzoyl peroxide in suspension” value (in suspension (disperse form) in water and in propylene glycol, after 90 days of storage) is “not degraded”.
